Measured values taken from article PMC9481151, “Discovery of new symmetrical and asymmetrical nitrile-containing 1,4-dihydropyridine derivatives as dual kinases and P-glycoprotein inhibitors: synthesis, in vitro assays, and in silico studies” (Journal of Enzyme Inhibition and Medicinal Chemistry, 2022).

Key:
CCRF-CEM = assay: NCI single dose (10 µM) SRB screen; assay type: cell-based, human; conditions: leukaemia, 48 h
HL-60(TB) = assay: NCI single dose (10 µM) SRB screen; assay type: cell-based, human; conditions: leukaemia, 48 h
K-562 = assay: NCI single dose (10 µM) SRB screen; assay type: cell-based, human; conditions: leukaemia, 48 h
MOLT-4 = assay: NCI single dose (10 µM) SRB screen; assay type: cell-based, human; conditions: leukaemia, 48 h
RPMI-8226 = assay: NCI single dose (10 µM) SRB screen; assay type: cell-based, human; conditions: leukaemia, 48 h
SR = assay: NCI single dose (10 µM) SRB screen; assay type: cell-based, human; conditions: leukaemia, 48 h
A549/ATCC = assay: NCI single dose (10 µM) SRB screen; assay type: cell-based, human; conditions: non-small cell lung cancer, 48 h
EKVX = assay: NCI single dose (10 µM) SRB screen; assay type: cell-based, human; conditions: non-small cell lung cancer, 48 h
HOP-62 = assay: NCI single dose (10 µM) SRB screen; assay type: cell-based, human; conditions: non-small cell lung cancer, 48 h
HOP-92 = assay: NCI single dose (10 µM) SRB screen; assay type: cell-based, human; conditions: non-small cell lung cancer, 48 h
NCI-H226 = assay: NCI single dose (10 µM) SRB screen; assay type: cell-based, human; conditions: non-small cell lung cancer, 48 h
NCI-H23 = assay: NCI single dose (10 µM) SRB screen; assay type: cell-based, human; conditions: non-small cell lung cancer, 48 h
NCI-H322M = assay: NCI single dose (10 µM) SRB screen; assay type: cell-based; conditions: non-small cell lung cancer, 48 h
NCI-H460 = assay: NCI single dose (10 µM) SRB screen; assay type: cell-based, human; conditions: non-small cell lung cancer, 48 h
NCI-H522 = assay: NCI single dose (10 µM) SRB screen; assay type: cell-based, human; conditions: non-small cell lung cancer, 48 h
COLO 205 = assay: NCI single dose (10 µM) SRB screen; assay type: cell-based, human; conditions: colon cancer, 48 h
HCC-2998 = assay: NCI single dose (10 µM) SRB screen; assay type: cell-based, human; conditions: colon cancer, 48 h
HCT-116 = assay: NCI single dose (10 µM) SRB screen; assay type: cell-based, human; conditions: colon cancer, 48 h
HCT-15 = assay: NCI single dose (10 µM) SRB screen; assay type: cell-based, human; conditions: colon cancer, 48 h
HT29 = assay: NCI single dose (10 µM) SRB screen; assay type: cell-based, human; conditions: colon cancer, 48 h
KM12 = assay: NCI single dose (10 µM) SRB screen; assay type: cell-based, human; conditions: colon cancer, 48 h
SW-620 = assay: NCI single dose (10 µM) SRB screen; assay type: cell-based, human; conditions: colon cancer, 48 h
SF-268 = assay: NCI single dose (10 µM) SRB screen; assay type: cell-based, human; conditions: CNS cancer, 48 h
SF-295 = assay: NCI single dose (10 µM) SRB screen; assay type: cell-based, human; conditions: CNS cancer, 48 h
SF-539 = assay: NCI single dose (10 µM) SRB screen; assay type: cell-based, human; conditions: CNS cancer, 48 h
SNB-19 = assay: NCI single dose (10 µM) SRB screen; assay type: cell-based, human; conditions: CNS cancer, 48 h
SNB-75 = assay: NCI single dose (10 µM) SRB screen; assay type: cell-based, human; conditions: CNS cancer, 48 h
U251 = assay: NCI single dose (10 µM) SRB screen; assay type: cell-based, human; conditions: CNS cancer, 48 h
LOX IMVI = assay: NCI single dose (10 µM) SRB screen; assay type: cell-based, human; conditions: melanoma, 48 h
MALME-3M = assay: NCI single dose (10 µM) SRB screen; assay type: cell-based, human; conditions: melanoma, 48 h
M14 = assay: NCI single dose (10 µM) SRB screen; assay type: cell-based, human; conditions: melanoma, 48 h
MDA-MB-435 = assay: NCI single dose (10 µM) SRB screen; assay type: cell-based, human; conditions: melanoma, 48 h
SK-MEL-2 = assay: NCI single dose (10 µM) SRB screen; assay type: cell-based, human; conditions: melanoma, 48 h
SK-MEL-28 = assay: NCI single dose (10 µM) SRB screen; assay type: cell-based, human; conditions: melanoma, 48 h
SK-MEL-5 = assay: NCI single dose (10 µM) SRB screen; assay type: cell-based, human; conditions: melanoma, 48 h
UACC-257 = assay: NCI single dose (10 µM) SRB screen; assay type: cell-based, human; conditions: melanoma, 48 h
UACC-62 = assay: NCI single dose (10 µM) SRB screen; assay type: cell-based, human; conditions: melanoma, 48 h
IGROV1 = assay: NCI single dose (10 µM) SRB screen; assay type: cell-based, human; conditions: ovarian cancer, 48 h
OVCAR-3 = assay: NCI single dose (10 µM) SRB screen; assay type: cell-based, human; conditions: ovarian cancer, 48 h
OVCAR-4 = assay: NCI single dose (10 µM) SRB screen; assay type: cell-based, human; conditions: ovarian cancer, 48 h
OVCAR-5 = assay: NCI single dose (10 µM) SRB screen; assay type: cell-based, human; conditions: ovarian cancer, 48 h
OVCAR-8 = assay: NCI single dose (10 µM) SRB screen; assay type: cell-based, human; conditions: ovarian cancer, 48 h
NCI/ADR-RES = assay: NCI single dose (10 µM) SRB screen; assay type: cell-based, human; conditions: ovarian cancer, 48 h
SK-OV-3 = assay: NCI single dose (10 µM) SRB screen; assay type: cell-based, human; conditions: ovarian cancer, 48 h
786-0 = assay: NCI single dose (10 µM) SRB screen; assay type: cell-based, human; conditions: renal cancer, 48 h
A498 = assay: NCI single dose (10 µM) SRB screen; assay type: cell-based, human; conditions: renal cancer, 48 h
ACHN = assay: NCI single dose (10 µM) SRB screen; assay type: cell-based, human; conditions: renal cancer, 48 h
CAKI-1 = assay: NCI single dose (10 µM) SRB screen; assay type: cell-based, human; conditions: renal cancer, 48 h
RXF 393 = assay: NCI single dose (10 µM) SRB screen; assay type: cell-based, human; conditions: renal cancer, 48 h
SN12C = assay: NCI single dose (10 µM) SRB screen; assay type: cell-based, human; conditions: renal cancer, 48 h
TK-10 = assay: NCI single dose (10 µM) SRB screen; assay type: cell-based, human; conditions: renal cancer, 48 h
UO-31 = assay: NCI single dose (10 µM) SRB screen; assay type: cell-based, human; conditions: renal cancer, 48 h
PC-3 = assay: NCI single dose (10 µM) SRB screen; assay type: cell-based, human; conditions: prostate cancer, 48 h
DU-145 = assay: NCI single dose (10 µM) SRB screen; assay type: cell-based, human; conditions: prostate cancer, 48 h
MCF7 = assay: NCI single dose (10 µM) SRB screen; assay type: cell-based, human; conditions: breast cancer, 48 h
MDA-MB-231 = assay: NCI single dose (10 µM) SRB screen; assay type: cell-based, human; conditions: breast cancer, 48 h
HS578T = assay: NCI single dose (10 µM) SRB screen; assay type: cell-based, human; conditions: breast cancer, 48 h
BT-549 = assay: NCI single dose (10 µM) SRB screen; assay type: cell-based, human; conditions: breast cancer, 48 h
T-47D = assay: NCI single dose (10 µM) SRB screen; assay type: cell-based, human; conditions: breast cancer, 48 h
MDA-MB-468 = assay: NCI single dose (10 µM) SRB screen; assay type: cell-based, human; conditions: breast cancer, 48 h
NCI 60 cancer cell lines = assay: NCI single dose (10 µM) SRB screen, mean over panel; assay type: cell-based, human; conditions: mean over 60 cell lines, 48 h
Staphylococcus aureus = assay: Agar well diffusion method
Bacillus subtilis = assay: Agar well diffusion method; conditions: relative to ciprofloxacin
Escherichia coli = assay: Agar well diffusion method; conditions: relative to ciprofloxacin
Pseudomonas aeruginosa = assay: Agar well diffusion method; conditions: relative to ciprofloxacin
Candida albicans = assay: Agar well diffusion method; conditions: relative to clotrimazole
Aspergillus flavus = assay: Agar well diffusion method; conditions: relative to clotrimazole

SMILES: CCCC1=C(C(=O)OCC)C(c2cccc(C#N)c2)C(C(=O)OC)=C(C)N1 (racemic) [Compound 2f, (±)-3-Ethyl 5-methyl 4-(3-cyanophenyl)-6-methyl-2-propyl-1,4-dihydropyridine-3,5-dicarboxylate]
- GI% CCRF-CEM (CCRF-CEM): – (Only GI% ≥ 10 are shown)
- GI% HL-60(TB) (HL-60(TB)): 11%
- GI% K-562 (K-562): – (Only GI% ≥ 10 are shown)
- GI% MOLT-4 (MOLT-4): 14%
- GI% RPMI-8226 (RPMI-8226): 12%
- GI% SR (SR): – (Only GI% ≥ 10 are shown)
- GI% A549/ATCC (A549/ATCC): – (Only GI% ≥ 10 are shown)
- GI% EKVX (EKVX): – (Only GI% ≥ 10 are shown)
- GI% HOP-62 (HOP-62): – (Only GI% ≥ 10 are shown)
- GI% HOP-92 (HOP-92): – (Only GI% ≥ 10 are shown)
- GI% NCI-H226 (NCI-H226): – (Only GI% ≥ 10 are shown)
- GI% NCI-H23 (NCI-H23): – (Only GI% ≥ 10 are shown)
- GI% NCI-H322M (NCI-H322M): – (Only GI% ≥ 10 are shown)
- GI% NCI-H460 (NCI-H460): – (Only GI% ≥ 10 are shown)
- GI% NCI-H522 (NCI-H522): – (Only GI% ≥ 10 are shown)
- GI% COLO 205 (COLO 205): – (Only GI% ≥ 10 are shown)
- GI% HCC-2998 (HCC-2998): – (Only GI% ≥ 10 are shown)
- GI% HCT-116 (HCT-116): 11%
- GI% HCT-15 (HCT-15): – (Only GI% ≥ 10 are shown)
- GI% HT29 (HT29): – (Only GI% ≥ 10 are shown)
- GI% KM12 (KM12): – (Only GI% ≥ 10 are shown)
- GI% SW-620 (SW-620): – (Only GI% ≥ 10 are shown)
- GI% SF-268 (SF-268): – (Only GI% ≥ 10 are shown)
- GI% SF-295 (SF-295): – (Only GI% ≥ 10 are shown)
- GI% SF-539 (SF-539): – (Only GI% ≥ 10 are shown)
- GI% SNB-19 (SNB-19): – (Only GI% ≥ 10 are shown)
- GI% SNB-75 (SNB-75): 37%
- GI% U251 (U251): – (Only GI% ≥ 10 are shown)
- GI% LOX IMVI (LOX IMVI): – (Only GI% ≥ 10 are shown)
- GI% MALME-3M (MALME-3M): – (Only GI% ≥ 10 are shown)
- GI% M14 (M14): – (Only GI% ≥ 10 are shown)
- GI% MDA-MB-435 (MDA-MB-435): – (Only GI% ≥ 10 are shown)
- GI% SK-MEL-2 (SK-MEL-2): – (Only GI% ≥ 10 are shown)
- GI% SK-MEL-28 (SK-MEL-28): – (Only GI% ≥ 10 are shown)
- GI% SK-MEL-5 (SK-MEL-5): – (Only GI% ≥ 10 are shown)
- GI% UACC-257 (UACC-257): – (Only GI% ≥ 10 are shown)
- GI% UACC-62 (UACC-62): 21%
- GI% IGROV1 (IGROV1): – (Only GI% ≥ 10 are shown)
- GI% OVCAR-3 (OVCAR-3): – (Only GI% ≥ 10 are shown)
- GI% OVCAR-4 (OVCAR-4): – (Only GI% ≥ 10 are shown)
- GI% OVCAR-5 (OVCAR-5): – (Only GI% ≥ 10 are shown)
- GI% OVCAR-8 (OVCAR-8): – (Only GI% ≥ 10 are shown)
- GI% NCI/ADR-RES (NCI/ADR-RES): – (Only GI% ≥ 10 are shown)
- GI% SK-OV-3 (SK-OV-3): – (Only GI% ≥ 10 are shown)
- GI% 786-0 (786-0): – (Only GI% ≥ 10 are shown)
- GI% A498 (A498): – (Only GI% ≥ 10 are shown)
- GI% ACHN (ACHN): – (Only GI% ≥ 10 are shown)
- GI% CAKI-1 (CAKI-1): 18%
- GI% RXF 393 (RXF 393): – (Only GI% ≥ 10 are shown)
- GI% SN12C (SN12C): – (Only GI% ≥ 10 are shown)
- GI% TK-10 (TK-10): – (Only GI% ≥ 10 are shown)
- GI% UO-31 (UO-31): 13%
- GI% PC-3 (PC-3): 23%
- GI% DU-145 (DU-145): – (Only GI% ≥ 10 are shown)
- GI% MCF7 (MCF7): – (Only GI% ≥ 10 are shown)
- GI% MDA-MB-231 (MDA-MB-231): – (Only GI% ≥ 10 are shown)
- GI% HS578T (HS578T): – (Only GI% ≥ 10 are shown)
- GI% BT-549 (BT-549): – (Only GI% ≥ 10 are shown)
- GI% T-47D (T-47D): – (Only GI% ≥ 10 are shown)
- GI% MDA-MB-468 (MDA-MB-468): – (Only GI% ≥ 10 are shown)
- Mean GI% (NCI 60 cancer cell lines): 1%
- melting point: 121 to 122 °C
- zone of inhibition at 1000 µg/mL (Staphylococcus aureus; Staphylococcus aureus, 24 h, read-out: Diameter of inhibition zone, S. aureus): 6 mm
- % activity index, S. aureus (Staphylococcus aureus; relative to ciprofloxacin): 25%
- % activity index, B. subtilis (Bacillus subtilis): – (Values below 25 are of limited value and not shown as they refer either to inactive or non-diffusing compounds)
- % activity index, E. coli (Escherichia coli): – (Values below 25 are of limited value and not shown as they refer either to inactive or non-diffusing compounds)
- % activity index, P. aeruginosa (Pseudomonas aeruginosa): – (Values below 25 are of limited value and not shown as they refer either to inactive or non-diffusing compounds)
- % activity index, C. albicans (Candida albicans): – (Values below 25 are of limited value and not shown as they refer either to inactive or non-diffusing compounds)
- % activity index, A. flavus (Aspergillus flavus): – (Values below 25 are of limited value and not shown as they refer either to inactive or non-diffusing compounds)
